The values that follow come from PubChem BioAssay AID588628 (NMMLSC, 2011).

“And” between values parts separate entries of the source, which are not always exact repeats. Equal values may be shown once. The source made the active and inactive calls.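 How the source made its calls: active means fitted EC50 of 10 µM or less with% response changing by at least 30 points across doses; inactive means the rest.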

In the first assay the target is GTPase HRas (Homo sapiens) (UniProt P01112). The assay can be described thus: activated H-Ras mutant GTP-binding inhibitors, SAR follow-up, biochemical, multiplex bead flow cytometry, round 2 (AID 588628). As to conditions: bead-based flow cytometry, Bodipy-FL-GTP binding, EDTA. Background: A flow cytometer gives signals particle by particle.
GTPase HRas (Homo sapiens), sequence (P01112 whole entry, looked up): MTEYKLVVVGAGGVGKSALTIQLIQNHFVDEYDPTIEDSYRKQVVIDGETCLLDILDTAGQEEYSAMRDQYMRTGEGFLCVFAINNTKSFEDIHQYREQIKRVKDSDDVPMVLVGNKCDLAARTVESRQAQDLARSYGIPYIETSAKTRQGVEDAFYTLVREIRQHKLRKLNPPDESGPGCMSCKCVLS
What is called EC50 is the concentration giving half of the maximal effect. Turning to `O=C(NC(=S)Nc1sc2c(c1C(=O)O)CCOC2)c1ccccc1`, the EC50 is 85 nM and 207 nM.

`CC1(C)Cc2c(sc(NC(=S)NC(=O)c3cccc(F)c3)c2C(=O)O)CO1`: the EC50 is 535 nM.

Take `CC1(C)CCc2sc(NC(=S)NC(=O)c3ccccc3)c(C(=O)O)c2C1`: the half-maximal effective concentration (EC50) is 53 nM.

As to `O=C(NC(=S)Nc1sc2c(c1C(=O)O)CC1(CCCC1)OC2)c1ccccc1`, the EC50 was 33 nM.

On to `CC1(C)Cc2c(sc(NC(=S)NC(=O)c3ccc(F)cc3)c2C(=O)O)CO1`, for which the EC50 is 91 nM.

Turning to `CCC1(C)Cc2c(sc(NC(=S)NC(=O)c3ccccc3)c2C(=O)O)CO1` (centres undefined), the EC50 is 35 nM.

For the molecule `Cc1ccccc1C(=O)NC(=S)Nc1sc2c(c1C(=O)O)CC(C)(C)OC2`, the EC50 is 379 nM.

In the case of `CC1(C)Cc2c(sc(NC(=S)NC(=O)C3CCCCC3)c2C(=O)O)CO1`, the concentration for a half-maximal effect (EC50) is 585 nM.

In the case of `CC(C)(C)C1Cc2c(sc(NC(=S)NC(=O)c3ccccc3)c2C(=O)O)CO1` (centres undefined), the concentration giving a half-maximal response (EC50) is 125 nM.

Consider `COc1cccc(C(=O)NC(=S)Nc2sc3c(c2C(=O)O)CC(C)(C)OC3)c1`, for which the 50% effective concentration (EC50) is 205 nM.

In the case of `CC1(C)Cc2c(sc(NC(=S)NC(=O)c3ccccc3Br)c2C(=O)O)CO1`, the EC50 is 1210 nM.

Turning to `CC1(C)Cc2c(sc(NC(=O)NC(=O)c3ccccc3)c2C(=O)O)CO1`, the EC50 was 824 nM.

Regarding `CC1(C)Cc2c(sc(NC(=S)NC(=O)c3ccc(Br)cc3)c2C(=O)O)CO1`, the EC50 was 564 nM.

Take `COc1ccc(C(=O)NC(=S)Nc2sc3c(c2C(=O)O)CC(C)(C)OC3)cc1`: the EC50 was 276 nM.

Take `Cc1ccc(C(=O)NC(=S)Nc2sc3c(c2C(=O)O)CC(C)(C)OC3)cc1`: the EC50 was 178 nM.

With `CC1Cc2c(sc(NC(=S)NC(=O)c3ccccc3)c2C(=O)O)CO1` (centres undefined), the EC50 is 217 nM.

Take `CC1(C)Cc2c(sc(NC(=S)NC(=O)c3cccs3)c2C(=O)O)CO1`: the EC50 was 24 nM.

In the case of `CC1(C)Cc2c(sc(NC(=S)NC(=O)c3ccccc3)c2C(=O)O)CO1`, the EC50 is 21 nM.

Consider `CC1(C)Cc2c(sc(NC(=S)NC(=O)c3ccccc3F)c2C(=O)O)CO1`, for which the EC50 was 283 nM.

For `Cc1cccc(C(=O)NC(=S)Nc2sc3c(c2C(=O)O)CC(C)(C)OC3)c1`, the EC50 is 854 nM.

For the molecule `CC1(C)Cc2c(sc(NC(=S)NC(=O)c3ccco3)c2C(=O)O)CO1`, the 50% effective concentration (EC50) was 65 nM.

Still in this assay, the particulars now being: bead-based flow cytometry, Bodipy-FL-GTP binding, EDTA; at 100 µM (top of the series).
As to `CC1(C)Cc2c(sc(NC(=S)Nc3ccccc3)c2C(=O)O)CO1`, the “% response (binding remaining)” value is “inactive”.

In the case of `COc1ccccc1C(=O)NC(=S)Nc1sc2c(c1C(=O)O)CC(C)(C)OC2`, the “% response (binding remaining)” value is “inactive”.

`CC1(C)Cc2c(sc(NC(=S)NC(=O)c3cccc(Br)c3)c2C(=O)O)CO1`: the “% response (binding remaining)” value is “inactive”.
